Data published in publication PMC3098923 (Bioorganic & medicinal chemistry letters, 2011).

What was measured:
[1] = molecular target: T1, human TLR7 (Homo sapiens, UniProt Q9NYK1); assay: human TLR7-specific reporter gene assay; assay type: cell-based
T1 sequence (Q9NYK1 27-1049): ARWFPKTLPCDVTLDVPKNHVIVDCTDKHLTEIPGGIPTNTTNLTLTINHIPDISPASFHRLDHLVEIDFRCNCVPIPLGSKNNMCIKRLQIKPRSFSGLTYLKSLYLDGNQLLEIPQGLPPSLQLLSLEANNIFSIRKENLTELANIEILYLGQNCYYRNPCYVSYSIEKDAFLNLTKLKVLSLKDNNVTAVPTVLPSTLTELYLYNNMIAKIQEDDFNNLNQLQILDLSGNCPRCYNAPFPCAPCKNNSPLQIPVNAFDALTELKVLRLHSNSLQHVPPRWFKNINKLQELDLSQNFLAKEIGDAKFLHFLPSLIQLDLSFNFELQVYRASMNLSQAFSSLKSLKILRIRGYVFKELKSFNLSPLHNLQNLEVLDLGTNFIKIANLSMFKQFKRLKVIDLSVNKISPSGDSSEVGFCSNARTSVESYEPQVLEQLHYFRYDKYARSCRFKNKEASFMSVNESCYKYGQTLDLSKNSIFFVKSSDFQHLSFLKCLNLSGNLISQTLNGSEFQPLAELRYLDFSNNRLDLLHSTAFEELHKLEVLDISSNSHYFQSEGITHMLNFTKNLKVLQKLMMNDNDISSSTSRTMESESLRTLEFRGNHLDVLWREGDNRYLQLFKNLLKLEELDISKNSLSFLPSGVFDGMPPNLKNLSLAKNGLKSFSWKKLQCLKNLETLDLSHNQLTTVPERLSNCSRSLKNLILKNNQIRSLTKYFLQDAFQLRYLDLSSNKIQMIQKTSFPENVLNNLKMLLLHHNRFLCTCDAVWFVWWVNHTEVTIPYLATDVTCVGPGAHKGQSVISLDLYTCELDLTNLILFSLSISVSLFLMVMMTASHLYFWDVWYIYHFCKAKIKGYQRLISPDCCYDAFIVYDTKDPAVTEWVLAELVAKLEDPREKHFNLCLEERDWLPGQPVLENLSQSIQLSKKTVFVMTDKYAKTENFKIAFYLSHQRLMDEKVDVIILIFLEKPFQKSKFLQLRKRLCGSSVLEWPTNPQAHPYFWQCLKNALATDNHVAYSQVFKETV

[2] = aqueous solubility; assay type: physicochemical
[3] = tested on: human PBMCs; assay: Induction of IFN-α, IFN-γ, IL-12 and IL-18 in human PBMCs, ELISA; assay type: cell-based

TLR7-agonistic activity (in words) [1] | aqueous solubility [2] | SMILES | Th1-biased cytokine induction (IFN-α, IFN-γ, IL-12, IL-18) [3]
completely inactive | – | CCCCc1nc2c(N)nc3ccccc3c2n1Cc1ccc(CNC(=O)CCN2C(=O)CC(SC[C@@H](NC(=O)CC[C@@H](N)C(=O)O)C(=O)NCC(=O)O)C2=O)cc1 (stereo partly shown) [6a] | –
– | excellent | CCCCc1nc2c(N)nc3ccccc3c2n1Cc1ccc(CN)cc1 [compound 1] | prominent Th1 bias
active | – | CCCCc1nc2c(N)nc3ccccc3c2n1Cc1ccc(CNC(=S)NCC(=O)NCC(=O)NCC(=O)OC)cc1 [compound 3] | –
